The structures appear in SMILES notation.

The series can be described thus: [1H,15N] HSQC NMR / HPLC: reactivity of cisplatin with histidine and leakage from liposomes. Type of series: physicochemical. The note with it: 24-hour incubation, 1:1 mole ratio with N-acetyl histidine. From the text: Inverse detection experiments detect the protons that are coupled to ^15N and thus provide information about the chemical shifts and coupling constants of the ^15N which depend on the ligands in the first coordination sphere of the Pt and on its oxidation state. […] HSQC and HMQC are two-dimensional inverse detection experiments that have the proton chemical shifts on one axis and the ^15N chemical shifts on the second axis. HSQC and HMQC of ^15N-labeled Pt complexes have been used successfully, to detect micromolar concentrations of Pt complexes. In the studies performed in support of the invention, HSQC was used, since it gives narrower lines and better resolution than HMQC. […] In addition to the tremendous gain in sensitivity, HSQC selectively detects only the protons that are coupled to the ^15N, thus ignoring all the other protons in the solution (from the liposomes) and simplifying the interpretation of the data.
These associations are irreversible, thus making the drug unavailable, once bound.
A similar study was carried out with N-BOC-methionine.
Lipids (HSPC/cholesterol/^2000PEG-DSPE 51:44:5) were dissolved in ethanol. […] Aliquots of the liposomes and of both precipitates were analyzed by heteronuclear single quantum coherence (HSQC) at 30° C. […]
All [^1H, ^15N] […] The 2D data were recorded using Bruker sequence of […] […]

Turning to `N.N.[Cl][Pt][Cl]` [^15N-cisplatin, cis-^15N-diamminedichloroplatinum(II)], the “cisplatin-histidine species, share of the platinum detected (HPLC)” value is recorded as 20-30%.
